Laboratory results: patent US20040197396A1, “Anhydrous crystal form of valaciclovir hydrochloride” (priority 2001, published 2004)
Where a name gives a salt, the structure may show the parent alone.

How the values were obtained:
[1] = Thermogravimetric analysis (TGA); format: physicochemical; details: from 182-310° C.; scan rate 10° C. per minute
Description: Thermogravimetric analysis was carried out on a Perkin-Elmer Pyris-1 TGA system. Scan rate of 10° C. per minute. Sample size 3.757 mg. The TGA trace is provided at FIG. 6.

[2] = Water content by Karl Fisher titration; format: physicochemical; details: Example 11 sample
Description: The water of hydration content is measured by the Karl Fischer method which is well known in the art and is described in the 1990 US Pharmacopoeia at pages 1619-1621, and the European Pharmacopoeia, second edition (1992) part 2, sixteenth fascicule at v. 3.5-6.1. Water content (by Karl Fisher titration): 0.61% w/w

[3] = Stability and hygroscopicity of the crystal form (stated, no method); format: physicochemical; details: statement in words
[4] = relative to acyclovir; statement in words; cited from earlier work

Row | Weight loss associated with melting/decomposition [1] [% w/w] | Water content (by Karl Fisher titration) [2] [% w/w] | Hygroscopicity [3] | Stability of the crystal form [3] | Compound | Bioavailability [4]
1 | 42.97 | 0.61 | essentially non-hygroscopic | stable | CC(C)[C@H](N)C(=O)OCCOCn1cnc2c(=O)[nH]c(N)nc21 [Form 2 Valaciclovir Hydrochloride, valaciclovir hydrochloride] | –
2 | – | – | – | – | CC(C)[C@H](N)C(=O)OCCOCn1cnc2c(=O)[nH]c(N)nc21 [valaciclovir] | much improved bioavailability
